Series [1] concerns the target T1, assembled tsyn (core aggregation domain of α-synuclein, amino acids 31-109) (Homo sapiens, UniProt P37840).
T1 construct: The core aggregation domain of α-synuclein (amino acids 31-109) was expressed with an N-terminal polyhistidine tag; polyhistidine (N); made in house; host or cells: E. coli
The series is described as follows: Fluorescence assay of disruption of assembled tsyn (thioflavine T / primulin). It counts as biochemical. How it is done:
(§1) α-Synuclein proteins (tsyn or fsyn) were incubated at 37° C. for the times indicated in Figure legends with mixing to induce fibril formation. In some cases, 50 μg/ml heparin was included to enhance fibril formation.
(§2) Samples of 10 μl were then diluted to 100 μl with water, plus thioflavine T or primulin at 1 μM, or 0.2 or 5 μM in some cases. Fluorescence excitation spectra were measured in 96 well plates in a Varian Carey Eclipse Fluorescence Spectrophotometer, with the emission wavelength at 480 nm. Excitation spectra were corrected for the signal measured without tsyn and the peak signal measured from the spectra. The data were normalised to the value measured without compound and P50 values measured from plots of normalised fluorescence against concentration of compound.
The effect of the compounds on thioflavine T and primulin fluorescence could be due to competition for the fluorescence ligand rather than disruption of the fibrils. To test this, the experiment was done at three different concentrations of fluorophore, since the P50 will be dependent on fluorophore concentration only if the effect is due to competition.

In series [2] the target is T2, α-synuclein (fsyn binding to solid phase tsyn) (Homo sapiens, UniProt P37840).
T2 construct: full-length α-synuclein (fsyn) was added in the aqueous phase; The core aggregation domain of α-synuclein (amino acids 31-109) was expressed with an N-terminal polyhistidine tag; polyhistidine (N); made in house; host or cells: E. coli
Nature of the series: Solid phase ELISA assay for synuclein-synuclein binding. How it is done: A solid phase assay was used to measure self-association of α-synuclein. tsyn diluted in carbonate buffer (pH 8.5) was bound to the assay plate, and full-length α-synuclein (fsyn) was added in the aqueous phase. The aqueous phase binding buffer was 50 mM Na-phosphate, pH 6.0, 20 mM NaCl, 0.05% Tween-20, 1% fish skin gelatine.
The two α-synuclein proteins were also used in a binding assay. The tsyn is bound in the solid phase, and full-length fsyn is added in the aqueous phase. […]

In a further series the test system is parkinsonian tremor. The following applies: cited from earlier work.
Series [3] concerns the target α-synuclein (SSFsyn) in NIE-115 cells (Homo sapiens, UniProt P37840). Nature of the series: Cell based assay for α-synuclein aggregation (SSFsyn in NIE-115 cells differentiated with dbcAMP, immunoblot mAb 42). The following applies: for EC50: ratio of α-synuclein to non-specific band falls to 50% of dbcAMP alone, immunoblot mAb 42, read-out: EC50, inhibition of FSyn expression in NIE cells differentiated with dbcAMP. Also on record: species or system mouse. How it is done:
The cell based assay employed a mouse neuroblastoma cell line NIE-115 that had been engineered to express full-length α-synuclein incorporating an N-terminal signal sequence (SSfsyn) to target incorporation of the protein into the membrane (see WO02/059150). When the cells were differentiated with dibutyryl cyclicAMP (dbcAMP) (1 mM) expression of the α-synuclein protein was increased.
α-synuclein protein was detected by immunoblot using various anti-α-synuclein antibodies. These included: mAb 42 (BD Biosciences Cat No. 610787) that recognises an epitope within tsyn (residues 31-109 of α-synuclein). In addition to α-synuclein, mAb 42 also reacts non-specifically with a protein of higher molecular mass (the protein is not recognised by other anti-α-synuclein antibodies). This protein was used as an estimate of cell numbers as the level of this protein in cells correlates with cell density. Drugs were tested with these cells and an inhibitory activity (EC50) was calculated by determining the drug concentration in which the ratio of α-synuclein to the non-specific band fell to 50% of the value for cells treated with dbcAMP alone.
The timing of the addition of the dbcAMP and drug was varied and the length of time that the cells are left in the presence of drug+dbcAMP before collecting cells was also be varied.

Series [4] concerns the target T3, assembled fsyn (full-length α-synuclein) (Homo sapiens, UniProt P37840).
T3 construct: Full-length α-synuclein (syn) was expressed without a tag, and purified by ion exchange chromatography; made in house; host or cells: E. coli
Nature of the series: Fluorescence assay of disruption of assembled fsyn (thioflavine T / primulin). It counts as biochemical. The note with it: assembled 47 h with heparin, compound 1 h, read-out: P50 for inhibition of α-synuclein-dependent fluorescence. How it is done:
as §1, §2

The mark [5] stands for this setting: tsyn-16 assembled with heparin (50 μg/ml), primulin 1 μM, mean ± SEM (n), read-out: P50 (μM) using primulin.
[6] abbreviates: tsyn-16 assembled with heparin (50 μg/ml), thioflavine T 1 μM, mean ± SEM (n), read-out: P50 (μM) using thioflavone T.
Setting [7] is: 1 μM tsyn-16 (solid phase), 5 μM fsyn-20 (aqueous phase), 50 mM sodium phosphate pH 6.0, 20 mM NaCl, read-out: B50 (μM) in α-synuclein binding assay.
Where [8] appears, read: assembled tsyn, primulin 0.2 μM, read-out: P50 (mean), effect of fluorophore concentration.
Where [9] appears, read: assembled tsyn, primulin 1.0 μM, read-out: P50 (mean), effect of fluorophore concentration.
[10] abbreviates: assembled tsyn, primulin 5.0 μM, read-out: P50 (mean), effect of fluorophore concentration.
[11] abbreviates: assembled tsyn, thioflavine T 0.2 μM, read-out: P50 (mean), effect of fluorophore concentration.
[12] abbreviates: assembled tsyn, thioflavine T 1.0 μM, read-out: P50 (mean), effect of fluorophore concentration.
[13] abbreviates: assembled tsyn, thioflavine T 5.0 μM, read-out: P50 (mean), effect of fluorophore concentration.
[14] abbreviates: tsyn-13, primulin 1 μM, assembled 20 h with heparin, compound 1 h, read-out: P50 for inhibition of α-synuclein-dependent fluorescence.
Where [15] appears, read: tsyn-13, thioflavine T 1 μM, assembled 20 h with heparin, compound 1 h, read-out: P50 for inhibition of α-synuclein-dependent fluorescence.

Like-named read-outs stand apart in the source and are kept apart here. A value given as a limit tells only on which side of the number the result lay.

For the compound Thionine, the values for the IC50 in series [1] (setting [5]), in series [1] (setting [6]) and in series [2] (setting [7]) were 23 ± 2.2 µM, 3.8 ± 0.3 µM and 32.2 ± 11.7 µM, respectively. The “activity in the synuclein-synuclein binding assay” value in series [2] is given as “active”. In addition, in the series with parkinsonian tremor (4 individuals, MTC intravenously 1 or 2 mg/kg), the “effect on Parkinsonian tremor” value is reported as “gave no result”.
Turning to `CCc1cc(N(CC)CC)cc2[s+]c3cc(N(CC)CC)cc(CC)c3nc12` [DEETC, 1,9-Diethyl-ethyl-thioninium chloride], the “activity in the synuclein-synuclein binding assay” value in series [2] is recorded as “active”. Moreover, the IC50 in series [2] (setting [7]) came to 0.4 µM. In addition, the EC50 in series [3] was determined as 4 ± 1 nM. The LD50 in the series on NIE cells was 1.0 µM.
As for `O=c1c(O)c(-c2cc(O)c(O)c(O)c2)oc2cc(O)ccc12` [Robinetin, reference compound], the figures for the IC50 in series [1] (setting [5]), in series [1] (setting [6]) and in series [2] (setting [7]) were 27.6 µM, 21.1 µM and 39.2 µM, respectively.
On to `CCN(CC)c1cc(C)c2nc3c(C)cc(N(CC)CC)cc3[s+]c2c1` [DMETC], for which the IC50 in series [1] (setting [5]) was 5 ± 0.9 µM; in series [1] (setting [6]), 0.9 ± 0.2 µM; in series [2] (setting [7]), 0.5 ± 0.1 µM. In addition, the “activity in the synuclein-synuclein binding assay” value in series [2] is recorded as “active”. Besides, the 50% effective concentration (EC50) in series [3] came to 50 ± 40 nM. The compound further came in with an LD50 in the series on NIE cells of 6 µM.
For `COc1cc(-c2oc3cc(O)ccc3c(=O)c2O)ccc1O` [Geraldol, reference compound], the IC50 in series [1] (setting [5]) was above 50 µM; in series [1] (setting [6]) it was above 50 µM; in series [2] (setting [7]), 60.8 µM.
On to `O=c1cc(-c2ccccc2)oc2cc(O)ccc12` [7-Hydroxy-flavone, reference compound], for which the IC50 in series [1] was above 50 µM; in series [1] (P50 (μM) using primulin, tsyn-16 assembled with heparin (50 μg/ml), primulin 1 μM, mean ± SEM (n)) it was above 50 µM; in series [2], 35.3 µM.
`CN(C)c1ccc2nc3ccc(N)cc3[s+]c2c1` [Azure A, reference compound]: the IC50 was 17.9 ± 2 µM in series [1] (setting [5]), 3.8 ± 0.9 µM in series [1] (setting [6]) and above 500 µM in series [2] (setting [7]). Moreover, the “activity in the synuclein-synuclein binding assay” value in series [2] is “inactive”. Further, in series [3], the EC50 turned out to be 320 nM. The same compound gave an LD50 with NIE cells of 8.8 µM.
`CNc1ccc2nc3ccc(N(C)C)cc3[s+]c2c1` [Azure B, reference compound]: in series [2], the “activity in the synuclein-synuclein binding assay” value is “inactive”. The IC50 in series [2] (setting [7]) is above 500 µM. Further, in series [3], the EC50 stood at 250 nM. In the series on NIE cells, this compound displayed an LD50 of 0.8 µM.
With `Cc1cc2nc3ccc(N(C)C)cc3[s+]c2cc1N` [Tolonium chloride, Tolonium Chloride], the IC50 in series [1] (setting [5]) was 8.8 ± 3.3 µM; in series [1] (setting [6]), 1.5 ± 0.2 µM; in series [2] (setting [7]), 3.3 ± 0.3 µM. Also, the “activity in the synuclein-synuclein binding assay” value in series [2] was “active”. For the same compound, the LD50 with NIE cells is 1.2 µM.
On to `CN(C)c1ccc2nc3ccc(N(C)C)cc3[s+]c2c1` [MTC, methyl-thioninium chloride], for which the IC50 amounted to 41.7 µM in series [1] (setting [8]); 35.1 µM in series [1] (setting [9]); 31.2 µM in series [1] (setting [10]); 11.6 µM in series [1] (setting [11]); 12.7 µM in series [1] (setting [12]); 20.2 µM in series [1] (setting [13]). Further, the IC50 in series [1] (setting [14]) is 12.9 µM; in series [1] (setting [15]) it was 18.5 µM; in series [1] (setting [5]), 30.4 ± 3 µM; in series [1] (setting [6]), 15.4 ± 3.7 µM; in series [4] (fsyn-14, primulin), 23.5 µM; in series [4] (fsyn-14, thioflavine T), 3.8 µM. In addition, in series [2] (setting [7]), the IC50 is 131 ± 15 µM. Further, the “activity in the synuclein-synuclein binding assay” value in series [2] is given as “active”. Besides, the “tolerability of oral administration” value with parkinsonian tremor (oral 8 grains (=518 mg)/day) is given as “discontinued due to side effects”.
On to `COc1cc(O)c2c(=O)c(O)c(-c3ccc(O)c(O)c3)oc2c1` [Rhamnetin, reference compound], for which the values for the IC50 in series [1] (setting [5]), in series [1] (setting [6]) and in series [2] (setting [7]) were 34.7 µM, 39.4 µM and 11.4 ± 9.7 µM, respectively. The “inhibitory activity in the cell based assay” value in series [3] (NIE-115 SSFsyn cells with dbcAMP) is listed as “inhibitory”. The same compound returned an LD50 in the series on NIE cells of 31 µM.
Regarding `O=c1c(O)c(-c2ccc(O)c(O)c2)oc2cc(O)ccc12` [Fisetin, reference compound], the IC50 in series [2] (setting [7]) is 88.2 µM.
`CCc1cc(N(C)C)cc2[s+]c3cc(N(C)C)cc(CC)c3nc12` [DEMTC, 1,9-Diethyl-methyl-thioninium chloride]: in series [2], the “activity in the synuclein-synuclein binding assay” value is “active”. In series [2] (setting [7]), the IC50 was 0.8 ± 0.4 µM. The LD50 in the series on NIE cells was 3 µM.
Consider `Cc1cc(N(C)C)cc2[s+]c3cc(N(C)C)cc(C)c3nc12` [DMMTC, 1,9-Dimethyl-methyl-thioninium chloride], for which the IC50 is 20.7 ± 7.8 µM in series [1] (setting [5]), 0.2 µM in series [1] (setting [6]) and 4.9 µM in series [2] (setting [7]). For the same compound, the “activity in the synuclein-synuclein binding assay” value in series [2] is given as “active”. In addition, the EC50 in series [3] was 100 ± 20 nM. In addition, the LD50 with NIE cells is 1.2 µM.
Turning to `CCN(CC)c1ccc2nc3ccc(N(CC)CC)cc3[s+]c2c1` [ETC, Ethyl-thioninium chloride], the IC50 in series [1] (setting [8]) was 41.7 µM; in series [1] (setting [9]), 34 µM; in series [1] (setting [10]), 32.3 µM; in series [1] (setting [11]), 3.2 µM; in series [1] (setting [12]), 9 µM; in series [1] (setting [13]), 17.6 µM. Besides, the IC50 stood at 24.1 µM in series [1] (setting [14]); 30.3 µM in series [1] (setting [15]); 26 ± 6 µM in series [1] (setting [5]); 7.3 ± 3.8 µM in series [1] (setting [6]); 30.6 µM in series [4] (fsyn-14, primulin); 25.3 µM in series [4] (fsyn-14, thioflavine T). In addition, in series [2] (setting [7]), the IC50 was determined as 3.8 ± 0.3 µM. Further, the “activity in the synuclein-synuclein binding assay” value in series [2] is listed as “active”. The EC50 in series [3] was 80 ± 20 nM. The same compound had an LD50 in the series on NIE cells of 38 µM.
For `O=c1c(O)c(-c2ccc(O)c(O)c2)oc2ccccc12` [3,3′,4′-Trihydroxy-flavone, reference compound], the IC50 in series [2] (setting [7]) was found to be 43.1 µM.
Take `O=c1cc(-c2ccccc2)oc2cc(O)c(O)c(O)c12` [Baicalein, reference compound]: the values for the IC50 in series [1] (setting [5]), in series [1] (setting [6]) and in series [2] (setting [7]) were 28.2 µM, 47.6 µM and 2.5 µM, respectively.
Take `Cc1c(-c2ccccc2)oc2cc(O)ccc2c1=O` [7-hydroxy-3-methyl-flavone, reference compound]: the IC50 in series [2] (setting [7]) is 141 µM.

These data come from patent publication US8263589B2, “Inhibitors of protein aggregation” (Wista Laboratories Ltd., priority 2006, dated 2012).
